Results: ChEMBL document CHEMBL5126611, “Design, Synthesis, and Biological Evaluations of Pyridyl 4,5,6,7-Tetrahydro-4,7-Methanobenzo[d]isoxazoles as Potent and Selective Inhibitors of 11β-Hydroxylase” (J Med Chem, 2022)

How the values were obtained:
[1] = Selectivity ratio of IC50 for inhibition of human CYP11B2 to IC50 for inhibition of human CYP11B1; assay type: ADME
[2] = target: T1, Cytochrome P450 11B2, mitochondrial (Homo sapiens, UniProt P19099); experiment: Inhibition of human CYP11B2 expressed in Chinese hamster V79 MZh cells using [14C]-deoxycorticosteron as substrate measured after 6 hrs by phosphoimager analysis; assay type: ADME, cell-based
T1 sequence (P19099 whole entry): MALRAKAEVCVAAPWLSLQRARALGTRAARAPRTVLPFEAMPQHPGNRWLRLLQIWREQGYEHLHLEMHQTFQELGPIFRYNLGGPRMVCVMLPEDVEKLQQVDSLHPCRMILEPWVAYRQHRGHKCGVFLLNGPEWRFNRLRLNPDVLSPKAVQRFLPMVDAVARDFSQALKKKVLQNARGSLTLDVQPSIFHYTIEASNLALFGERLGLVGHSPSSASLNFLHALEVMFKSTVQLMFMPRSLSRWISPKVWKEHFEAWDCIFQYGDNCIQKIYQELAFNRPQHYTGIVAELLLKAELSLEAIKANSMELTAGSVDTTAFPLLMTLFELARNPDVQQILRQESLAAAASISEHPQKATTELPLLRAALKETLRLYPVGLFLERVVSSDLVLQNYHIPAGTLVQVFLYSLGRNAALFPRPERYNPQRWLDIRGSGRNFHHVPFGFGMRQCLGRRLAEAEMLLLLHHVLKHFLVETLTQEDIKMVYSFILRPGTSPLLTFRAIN

[3] = target: T2, Cytochrome P450 11B1, mitochondrial (Homo sapiens, UniProt P15538); experiment: Inhibition of human CYP11B1 expressed in Chinese hamster V79 MZh cells using [14C]-deoxycorticosteron as substrate measured after 6 hrs by phosphoimager analysis; assay type: ADME, cell-based
T2 sequence (P15538 whole entry): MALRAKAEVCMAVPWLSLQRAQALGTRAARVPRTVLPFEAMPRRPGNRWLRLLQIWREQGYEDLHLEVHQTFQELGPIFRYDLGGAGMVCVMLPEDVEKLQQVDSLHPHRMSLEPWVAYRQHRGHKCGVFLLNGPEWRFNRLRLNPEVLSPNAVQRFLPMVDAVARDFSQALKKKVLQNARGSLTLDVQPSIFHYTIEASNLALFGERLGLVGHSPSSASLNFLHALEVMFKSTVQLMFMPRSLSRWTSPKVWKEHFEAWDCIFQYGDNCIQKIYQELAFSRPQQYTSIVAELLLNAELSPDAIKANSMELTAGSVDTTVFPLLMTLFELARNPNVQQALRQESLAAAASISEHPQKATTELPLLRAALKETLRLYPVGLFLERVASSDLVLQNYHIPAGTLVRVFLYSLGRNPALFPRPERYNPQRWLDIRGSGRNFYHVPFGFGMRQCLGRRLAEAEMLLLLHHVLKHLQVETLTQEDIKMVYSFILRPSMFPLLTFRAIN

| Compound | Ratio IC50 [1] | IC50 [2] [nM] | IC50 [3] [nM] |
| --- | --- | --- | --- |
| O=C(Nc1ccccc1F)[C@]12ON=C(c3cccnc3)[C@H]1[C@@H]1CC[C@H]2C1 | 43 | 5750 | 135 |
| O=C(Nc1ccc2[nH]ncc2c1)[C@]12ON=C(c3cncc(Br)c3)[C@H]1[C@@H]1CC[C@H]2C1 | 30 | 918 | 31 |
| O=C(Nc1ccc(F)cc1)[C@]12ON=C(c3cccnc3)[C@H]1[C@@H]1CC[C@H]2C1 | 53 | 2990 | 57 |
| CN(C(=O)[C@]12ON=C(c3cccnc3)[C@H]1[C@@H]1CC[C@H]2C1)c1ccccc1 | 23 | 4250 | 183 |
| O=C(Nc1cnc2[nH]ccc2c1)[C@]12ON=C(c3cccnc3)[C@H]1[C@@H]1CC[C@H]2C1 | 97 | 1650 | 17 |
| O=C(Nc1cccc(Cl)c1Cl)[C@]12ON=C(c3cccnc3)[C@H]1[C@@H]1CC[C@H]2C1 | 33 | 5120 | 157 |
| Cc1cccc(NC(=O)[C@]23ON=C(c4cccnc4)[C@H]2[C@@H]2CC[C@H]3C2)c1 | 63 | 9640 | 153 |
| N#Cc1cccc(NC(=O)[C@]23ON=C(c4cccnc4)[C@H]2[C@@H]2CC[C@H]3C2)c1 | 62 | 2180 | 35 |
| O=C(Nc1ccc2[nH]ncc2c1)[C@]12ON=C(c3cncc(-c4cccc(F)c4)c3)[C@H]1[C@@H]1CC[C@H]2C1 | 52 | 412 | 8 |
| O=C(Nc1cccc(F)c1)[C@]12ON=C(c3cccnc3)[C@H]1[C@@H]1CC[C@H]2C1 | 58 | 2840 | 49 |
| O=C(Nc1ccc2[nH]ncc2c1)[C@]12ON=C(c3cncc(-c4ccc(F)cc4)c3)[C@H]1[C@@H]1CC[C@H]2C1 | 19 | 113 | 6 |
| O=C(Nc1nc2ccccc2[nH]1)[C@]12ON=C(c3cccnc3)[C@H]1[C@@H]1CC[C@H]2C1 | 28 | 2940 | 106 |
| O=C(Nc1cccc(F)n1)[C@]12ON=C(c3cccnc3)[C@H]1[C@@H]1CC[C@H]2C1 | 47 | 4010 | 86 |
| COc1cccc(-c2cncc(C3=NO[C@]4(C(=O)Nc5ccc6[nH]ncc6c5)[C@H]5CC[C@H](C5)[C@H]34)c2)c1 | 32 | 477 | 15 |
| N#Cc1ccc(NC(=O)[C@]23ON=C(c4cccnc4)[C@H]2[C@@H]2CC[C@H]3C2)cc1 | 83 | 3800 | 46 |
| Cc1ccncc1NC(=O)[C@]12ON=C(c3cccnc3)[C@H]1[C@@H]1CC[C@H]2C1 | 39 | 4450 | 115 |
| Nc1ccccc1NC(=O)[C@]12ON=C(c3cccnc3)[C@H]1[C@@H]1CC[C@H]2C1 | 31 | 4310 | 138 |
| Cc1ccc(NC(=O)[C@]23ON=C(c4cccnc4)[C@H]2[C@@H]2CC[C@H]3C2)cc1 | 49 | 6220 | 128 |

| Compound | Ratio IC50 [1] | IC50 [2] [nM] | IC50 [3] [nM] |
| --- | --- | --- | --- |
| O=C(Nc1ccc2[nH]ncc2c1)[C@]12ON=C(c3cncc(-c4ccsc4)c3)[C@H]1[C@@H]1CC[C@H]2C1 | 39 | 1430 | 37 |
| Cc1ccccc1NC(=O)[C@]12ON=C(c3cccnc3)[C@H]1[C@@H]1CC[C@H]2C1 | 52 | 9770 | 189 |
| O=C(Nc1ccccc1)[C@]12ON=C(c3cccnc3)[C@H]1[C@@H]1CC[C@H]2C1 | 36 | 5940 | 167 |
| O=C(Nc1ccc2[nH]ncc2c1)[C@]12ON=C(c3cncc(-c4ccoc4)c3)[C@H]1[C@@H]1CC[C@H]2C1 | 17 | 796 | 46 |
| O=C(Nc1ccc(Cl)cc1)[C@]12ON=C(c3cccnc3)[C@H]1[C@@H]1CC[C@H]2C1 | 81 | 6720 | 83 |
| COc1ccc(NC(=O)[C@]23ON=C(c4cccnc4)[C@H]2[C@@H]2CC[C@H]3C2)cc1 | 51 | 4020 | 79 |
| N#Cc1ccc(-c2cncc(C3=NO[C@]4(C(=O)Nc5ccc6[nH]ncc6c5)[C@H]5CC[C@H](C5)[C@H]34)c2)cc1 | 28 | 57 | 2 |
| O=C(Nc1ccc2[nH]ncc2c1)[C@]12ON=C(c3cncc(-c4cccc(C(F)(F)F)c4)c3)[C@H]1[C@@H]1CC[C@H]2C1 | 23 | 398 | 17 |
| O=C(Nc1ccc([N+](=O)[O-])cc1)[C@]12ON=C(c3cccnc3)[C@H]1[C@@H]1CC[C@H]2C1 | 58 | 5590 | 96 |
| O=C(Nc1cccc(Cl)c1)[C@]12ON=C(c3cccnc3)[C@H]1[C@@H]1CC[C@H]2C1 | 69 | 6670 | 97 |
| O=C(Nc1ncccn1)[C@]12ON=C(c3cccnc3)[C@H]1[C@@H]1CC[C@H]2C1 | 43 | 7710 | 179 |
| O=C(Nc1ccc2cc[nH]c2c1)[C@]12ON=C(c3cccnc3)[C@H]1[C@@H]1CC[C@H]2C1 | 82 | 2070 | 25 |
| O=C(Nc1ccc2[nH]ccc2c1)[C@]12ON=C(c3cccnc3)[C@H]1[C@@H]1CC[C@H]2C1 | 103 | 2280 | 22 |
| COc1cccc(NC(=O)[C@]23ON=C(c4cccnc4)[C@H]2[C@@H]2CC[C@H]3C2)c1 | 75 | 2390 | 32 |
| COc1ccccc1NC(=O)[C@]12ON=C(c3cccnc3)[C@H]1[C@@H]1CC[C@H]2C1 | 53 | 5950 | 113 |
| N#Cc1cccc(-c2cncc(C3=NO[C@]4(C(=O)Nc5ccc6[nH]ncc6c5)[C@H]5CC[C@H](C5)[C@H]34)c2)c1 | 27 | 329 | 12 |
| O=C(Nc1cccc([N+](=O)[O-])c1)[C@]12ON=C(c3cccnc3)C1[C@@H]1CCC2C1 (single isomer, unassigned) | 41 | 2600 | 65 |
